Laboratory results from US10717764B2, “Therapeutically active compounds and their methods of use” (Agios Pharmaceuticals, Inc., priority 2013, dated 2020).

Test system: HT1080 cells (2-HG production)
Assay: Cellular assay, inhibition of 2-HG production in HT1080 cells
Assay type: cell-based
Settings: Homo sapiens, HT-1080, 48 h
Experimental: (§1) Cells (HT1080 or U87MG) are grown in T125 flasks in DMEM containing 10% FBS, 1× penicillin/streptomycin and 500 ug/mL G418 (present in U87MG cells only). They are harvested by trypsin and seeded into 96 well white bottom plates at a density of 5000 cell/well in 100 ul/well in DMEM with 10% FBS. […] Cells are incubated overnight at 37° C. in 5% CO2. The next day test compounds are made up at 2× the final concentration and 100 ul are added to each cell well. The final concentration of DMSO is 0.2% and the DMSO control wells are plated in row G. The plates are then placed in the incubator for 48 hours. […] The cell plate is placed back in the incubator for another 24 hours. At 72 hours post compound addition, 10 mL/plate of Promega Cell Titer Glo reagent is thawed and mixed. The cell plate is removed from the incubator and allowed to equilibrate to room temperature. Then 100 ul of Promega Cell Titer Glo reagent is added to each well of media. The cell plate is then placed on an orbital shaker for 10 minutes and then allowed to sit at room temperature for 20 minutes. The plate is then read for luminescence with an integration time of 500 ms.

| Molecule | IC50 |
| --- | --- |
| O=C(NC1CCCCC1)[C@@H](c1ccccc1Cl)N(C(=O)[C@@H]1CCC(=O)N1c1ncccn1)c1cccc(F)c1 [Compound 6] | 0.1 to 0.5 µM |

Test system: U87MG cells (2-HG production)
Assay: Cellular assay, inhibition of 2-HG production in U87MG cells
Assay type: cell-based
Settings: Homo sapiens, U-87 MG, 48 h
Experimental: as §1

| Molecule | IC50 |
| --- | --- |
| N#Cc1ccnc(N2C(=O)CC[C@H]2C(=O)N(c2cc(F)cc(F)c2)[C@H](C(=O)NC2CC(F)(F)C2)c2ccccc2F)c1 [Compound 208, (S)-1-(4-Cyanopyridin-2-yl)-N—((S)-2-(3,3-difluorocyclobutylamino)-1-(2-fluorophenyl)-2-oxoethyl)-N-(3,5-difluorophenyl)-5-oxopyrrolidine-2-carboxamide] | < 0.1 µM |
| CS(=O)(=O)c1cc(F)cc(N(C(=O)[C@@H]2CCC(=O)N2c2cc(C#N)ccn2)C(C(=O)NC2CC(F)(F)C2)c2ccccc2Cl)c1 (stereo partly drawn) [Compound 110, (2S)—N-(1-(2-Chlorophenyl)-2-((3,3-difluorocyclobutyl)amino)-2-oxoethyl)-1-(4-cyanopyridin-2-yl)-N-(3-fluoro-5-(methylsulfonyl)phenyl)-5-oxopyrrolidine-2-carboxamide] | < 0.1 µM |
| C[C@]1(O)C[C@@H](C(=O)N(c2cccc(F)c2)[C@H](C(=O)NC2CC(F)(F)C2)c2ccccc2Cl)N(c2cc(C#N)ccn2)C1=O (stereo in doubt) [Compound 183, (2S)—N—((R)-1-(2-chlorophenyl)-2-(3,3-difluorocyclobutylamino)-2-oxoethyl)-1-(4-cyanopyridin-2-yl)-N-(3-fluorophenyl)-4-hydroxy-4-methyl-5-oxopyrrolidine-2-carboxamide] | < 0.1 µM |
| O=C(NC1CC(F)(F)C1)[C@H](c1ccccc1Cl)N(C(=O)[C@@H]1CCC(=O)N1c1ccccn1)c1cccc(F)c1 [Compound 5] | 0.1 to 0.5 µM |
| O=C(N[C@H]1CCC(F)(F)C1)[C@H](c1ccccc1Cl)N(C(=O)[C@@H]1CCC(=O)N1c1ncccn1)c1cccc(F)c1 (stereo in doubt) [Compound 73] | < 0.1 µM |

Same assay, conditions: inhibition of 2-HG production, U87MG cells, 48 hours

| Molecule | IC50 |
| --- | --- |
| (S)—N—((S)-1-(2-Chlorophenyl)-2-(3,3-difluorocyclobutylamino)-2-oxoethyl)-1-(3-cyano-phenyl)-N-(1H-indazol-7-yl)-5-oxopyrrolidine-2-carboxamide [Compound 186] | < 0.1 µM |
| N#Cc1cccc(N2C(=O)OC[C@H]2C(=O)N(c2cccc3cn[nH]c23)[C@H](C(=O)NC2CCC(F)(F)CC2)c2ccccc2Cl)c1 [Compound 142, (S)—N—((S)-1-(2-Chlorophenyl)-2-(4,4-difluorocyclohexylamino)-2-oxoethyl)-3-(3-cyanophenyl)-N-(1H-indazol-7-yl)-2-oxooxazolidine-4-carboxamide] | < 0.1 µM |
| (S)—N—((S)-1-(2-Chlorophenyl)-2-((4,4-difluorocyclohexyl)amino)-2-oxoethyl)-1-(4-cyanopyridin-2-yl)-N-(1H-indazol-6-yl)-5-oxopyrrolidine-2-carboxamide [Compound 136] | < 0.1 µM |
| (S)-tert-butyl 3-(((S)-1-(2-chlorophenyl)-2-((3,3-difluorocyclobutyl) amino)-2-oxoethyl)(3,5-difluorophenyl)carbamoyl)-5-oxopiperazine-1-carboxylate [Compound 97] | < 0.1 µM |
| (S)—N—((S)-1-(2-Chlorophenyl)-2-((3,3-difluorocyclobutyl)amino)-2-oxoethyl)-1-(4-cyanopyridin-2-yl)-N-(3,5-difluorophenyl)-5-oxopyrrolidine-2-carboxamide [Compound 71] | < 0.1 µM |
| (S)—N—((S)-1-(2-Chlorophenyl)-2-((3,3-difluorocyclobutyl)amino)-2-oxoethyl)-1-(4-cyanopyridin-2-yl)-N-(1H-indazol-6-yl)-5-oxopyrrolidine-2-carboxamide [Compound 205] | < 0.1 µM |
| (S)—N—((S)-1-(2-Chlorophenyl)-2-(3,3-difluorocyclobutylamino)-2-oxoethyl)-N-(3-cyano-5-fluorophenyl)-3-(3-cyanophenyl)-2-oxooxazolidine-4-carboxamide [Compound 134] | < 0.1 µM |
